Here are results for 1 compound from US20030088888A1, “Method of plant transformation” (priority 2001, published 2003).

The assay concerns gypsophila stem explants. Put plainly: Transient transformation (GUS expression) of stem explants from GA3-pretreated plants after cocultivation with Agrobacterium tumefaciens EHA105/pKIWI105. Format: in vivo, Gypsophila paniculata L. On the procedure:
Unrooted cuttings of gypsophila (Gypsophila paniculata L.) cultivars Arbel, Pestival, Flamingo, Yokinko, New Hope and P2000 were obtained from Danziger “DAN” Flower Farm (Moshav Mishmar Hashiva, Israel). Stem cuttings with six or eight filly mature leaves (not counting the apical leaves which were not fully expanded), harvested from greenhouse-grown plants and stored for up to 2 weeks at 4° C., were used to prepare stem explants (Zuker A, Ahroni A, Shejtman H and Vainstein A (1997). Adventitious shoot regeneration from leaf explants of Gypsophila paniculata L. Plant Cell Reports, 16: 775-778; Ahroni A, Zuker A, Rozen Y, Shejtman H and Vainstein A (1997). An efficient method for adventitious shoot regeneration from stem-segment explants of gwpsophila. Plant Cell Tiss Org Cult 49: 101-106). Twenty days prior to harvesting of cuttings (unless otherwise i5 indicated), mother plants were sprayed once with approximately 4 ml. of 1 mM GA3.
Cuttings were rinsed with 70% ethanol, then sterilized for 10 min in 1.5% (w/v) sodium hypochlorite and rinsed three times for 10 min each in sterile water. The leaves and shoot apices of the cutting were discarded and the three primary nodes were immersed for 10 min in a bacterial (A. tumefaciens EHA105/pKIWI105) suspension (OD550=1). Inoculated stem explants were then blotted dry and cultured in an upright position on the cocultivation medium for a period of up to 5 days. Following cocultivation, stem explants were histochemically evaluated for transient GUS expression by counting the number of GUS-expressing stem explants, as well as the number of blue spots per explant under a stereo-microscope.
A histochemical assay of GUS activity was performed according to Stomp (1992). Tissue samples were incubated for a few hours to overnight at 37° C. in a 0.1% (w/v) X-Gluc (5-bromo-4-chloro-3-indolyl β-D-glucuronic acid sodium salt, Biosynth Inc., Staad, Switzerland) solution containing 0.1 M sodium phosphate buffer (pH 7.0), 10 mM EDTA, and 0.1% (w/v) Triton X-100. When necessary, green tissues were bleached, after staining, by immersion in 50% (v/v) EtOH for a few hours, followed by several washes with 70% EtOH. It should be noted that no background GUS activity was detectable in any of the analyzed tissues of control plants.

The structures appear in SMILES notation.

Consider `C=C1C[C@]23C[C@@]1(O)CC[C@H]2[C@@]12C=C[C@H](O)[C@@](C)(C(=O)O1)[C@H]2[C@@H]3C(=O)O` [GA3], for which, where the note is “cv. Arbel, explants from 20 day versus 10 day GA3 treated plants”, the “increase in frequency of transient transformation events (number of blue spots per explant)” value is reported as “ca. 3 times”. For the setting “cv. Arbel, explants from plants 20 days after GA3 treatment (1 mM spray), 5-day cocultivation with EHA105/pKIWI105”, the “percentage of GUS-expressing stem explants out of total number of explants inoculated” value is on record as 90%. Moreover, the “percentage of inoculated explants expressing GUS” value (cvs. Pestival and Flamingo, GA3-treated plants, cocultivation with EHA105/pKIWI105, dark then light, 5 days) is “ca. 75%”. Moreover, the “transient transformation (qualitative)” value (explants from cuttings of plants treated with GA3, versus no transient transformation without GA3) is “efficient and highly reproducible transient transformation was obtained”.
